Data as given in ChEMBL document CHEMBL4184201, “Inhibition of protein tyrosine phosphatase 1B (PTP1B) and α-glucosidase by xanthones from Cratoxylum cochinchinense, and their kinetic characterization” (Bioorg Med Chem, 2018).
The source made the active and inactive calls. The calls are words filed in the database; no cut-off is given here.

target: T1, Alpha glucosidase (Homo sapiens, UniProt O43451+P10253+P14410+Q2M2H8); assay: Mixed type inhibition of alpha-glucosidase (unknown origin) using PNP-G as substrate by Lineweaver-Burk plot analysis; format: protein assay

Mixed-type inhibition (qualitative)	Structure (SMILES)
Active	CC(C)=CCc1c(O)c(CC=C(C)C)c2oc3ccc(O)cc3c(=O)c2c1O
Active	CC(C)=CCC/C(C)=C/Cc1c(O)c(CC=C(C)C)c(O)c2c(=O)c3cc(O)ccc3oc12 [COCHINCHINONE A]
Active	C=C(CCC=C(C)C)C(O)Cc1c(O)c(CC=C(C)C)c(O)c2c(=O)c3cc(O)ccc3oc12 (stereo unspecified)
Active	COc1c(O)cc2oc3cc(O)c(CCC(C)(C)O)c(O)c3c(=O)c2c1CC=C(C)C
Active	CC(C)=CCCC(C)(O)C1Cc2c(c(CC=C(C)C)c(O)c3c(=O)c4cc(O)ccc4oc23)O1 (stereo unspecified)
Active	CC(C)=CCC/C(C)=C/COc1cc2oc3ccc(O)cc3c(=O)c2c(O)c1CC=C(C)C

target: T1, Alpha glucosidase; assay: Inhibition of alpha-glucosidase (unknown origin) using PNP-G as substrate by Dixon plot analysis; format: protein assay

Ki [µM]	Structure (SMILES)
19.2	CC(C)=CCc1c(O)c(CC=C(C)C)c2oc3ccc(O)cc3c(=O)c2c1O
13.4	CC(C)=CCC/C(C)=C/Cc1c(O)c(CC=C(C)C)c(O)c2c(=O)c3cc(O)ccc3oc12 [COCHINCHINONE A]
8.2	C=C(CCC=C(C)C)C(O)Cc1c(O)c(CC=C(C)C)c(O)c2c(=O)c3cc(O)ccc3oc12 (stereo unspecified)
25.1	COc1c(O)cc2oc3cc(O)c(CCC(C)(C)O)c(O)c3c(=O)c2c1CC=C(C)C
9.9	CC(C)=CCCC(C)(O)C1Cc2c(c(CC=C(C)C)c(O)c3c(=O)c4cc(O)ccc4oc23)O1 (stereo unspecified)
27.2	CC(C)=CCC/C(C)=C/COc1cc2oc3ccc(O)cc3c(=O)c2c(O)c1CC=C(C)C

target: T1, Alpha glucosidase; assay: Inhibition of alpha-glucosidase (unknown origin) using PNP-G as substrate measured for 15 mins by spectrophotometry; format: protein assay

IC50 [µM]	Structure (SMILES)
25.5	CC(C)=CCc1c(O)c(CC=C(C)C)c2oc3ccc(O)cc3c(=O)c2c1O
17.4	CC(C)=CCC/C(C)=C/Cc1c(O)c(CC=C(C)C)c(O)c2c(=O)c3cc(O)ccc3oc12 [COCHINCHINONE A]
10.1	C=C(CCC=C(C)C)C(O)Cc1c(O)c(CC=C(C)C)c(O)c2c(=O)c3cc(O)ccc3oc12 (stereo unspecified)
30.7	COc1c(O)cc2oc3cc(O)c(CCC(C)(C)O)c(O)c3c(=O)c2c1CC=C(C)C
16.1	CC(C)=CCCC(C)(O)C1Cc2c(c(CC=C(C)C)c(O)c3c(=O)c4cc(O)ccc4oc23)O1 (stereo unspecified)
28.4	CC(C)=CCC/C(C)=C/COc1cc2oc3ccc(O)cc3c(=O)c2c(O)c1CC=C(C)C

target: T2, Tyrosine-protein phosphatase non-receptor type 1 (Homo sapiens, UniProt P18031); assay: Inhibition of recombinant human PTP1B (1 to 322 residues) expressed in Escherichia coli using P-NPP as substrate after 10 mins by spectrophotometry
T2 sequence (P18031 whole entry): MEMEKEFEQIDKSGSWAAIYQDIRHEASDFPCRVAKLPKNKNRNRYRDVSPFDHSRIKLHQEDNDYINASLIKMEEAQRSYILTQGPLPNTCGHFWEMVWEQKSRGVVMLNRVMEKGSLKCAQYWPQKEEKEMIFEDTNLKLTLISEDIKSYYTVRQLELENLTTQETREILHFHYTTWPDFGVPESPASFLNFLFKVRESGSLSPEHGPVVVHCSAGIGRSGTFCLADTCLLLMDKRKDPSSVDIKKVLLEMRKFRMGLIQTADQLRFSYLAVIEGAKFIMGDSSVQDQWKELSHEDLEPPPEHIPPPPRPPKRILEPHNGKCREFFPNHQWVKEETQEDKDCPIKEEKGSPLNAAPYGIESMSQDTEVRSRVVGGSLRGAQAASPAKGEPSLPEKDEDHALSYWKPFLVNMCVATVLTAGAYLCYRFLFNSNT

IC50 [µM]	Structure (SMILES)
10.5	CC(C)=CCc1c(O)c(CC=C(C)C)c2oc3ccc(O)cc3c(=O)c2c1O
5.2	CC(C)=CCC/C(C)=C/Cc1c(O)c(CC=C(C)C)c(O)c2c(=O)c3cc(O)ccc3oc12 [COCHINCHINONE A]
12.5	C=C(CCC=C(C)C)C(O)Cc1c(O)c(CC=C(C)C)c(O)c2c(=O)c3cc(O)ccc3oc12 (stereo unspecified)
24.1	COc1c(O)cc2oc3cc(O)c(CCC(C)(C)O)c(O)c3c(=O)c2c1CC=C(C)C
7.2	CC(C)=CCCC(C)(O)C1Cc2c(c(CC=C(C)C)c(O)c3c(=O)c4cc(O)ccc4oc23)O1 (stereo unspecified)
7.05	CC(C)=CCC/C(C)=C/COc1cc2oc3ccc(O)cc3c(=O)c2c(O)c1CC=C(C)C

target: T3, Tyrosine-protein phosphatase non-receptor type 1 (Homo sapiens) (UniProt P18031); assay: Competitive inhibition of recombinant human PTP1B (1 to 322 residues) expressed in Escherichia coli using P-NPP as substrate after 10 mins by Lineweaver-Burk plot analysis
T3 sequence (whole entry): T2 sequence (P18031 whole entry)

inhibition type (Lineweaver-Burk)	Structure (SMILES)
Active	CC(C)=CCc1c(O)c(CC=C(C)C)c2oc3ccc(O)cc3c(=O)c2c1O
Active	CC(C)=CCC/C(C)=C/Cc1c(O)c(CC=C(C)C)c(O)c2c(=O)c3cc(O)ccc3oc12 [COCHINCHINONE A]
Active	C=C(CCC=C(C)C)C(O)Cc1c(O)c(CC=C(C)C)c(O)c2c(=O)c3cc(O)ccc3oc12 (stereo unspecified)
Active	COc1c(O)cc2oc3cc(O)c(CCC(C)(C)O)c(O)c3c(=O)c2c1CC=C(C)C
Active	CC(C)=CCCC(C)(O)C1Cc2c(c(CC=C(C)C)c(O)c3c(=O)c4cc(O)ccc4oc23)O1 (stereo unspecified)
Active	CC(C)=CCC/C(C)=C/COc1cc2oc3ccc(O)cc3c(=O)c2c(O)c1CC=C(C)C

target: T2, Tyrosine-protein phosphatase non-receptor type 1; assay: Inhibition of recombinant human PTP1B (1 to 322 residues) expressed in Escherichia coli using P-NPP as substrate after 10 mins by Dixon plot analysis

Ki [µM]	Structure (SMILES)
11.1	CC(C)=CCc1c(O)c(CC=C(C)C)c2oc3ccc(O)cc3c(=O)c2c1O
3.1	CC(C)=CCC/C(C)=C/Cc1c(O)c(CC=C(C)C)c(O)c2c(=O)c3cc(O)ccc3oc12 [COCHINCHINONE A]
8.9	C=C(CCC=C(C)C)C(O)Cc1c(O)c(CC=C(C)C)c(O)c2c(=O)c3cc(O)ccc3oc12 (stereo unspecified)
22.9	COc1c(O)cc2oc3cc(O)c(CCC(C)(C)O)c(O)c3c(=O)c2c1CC=C(C)C
3.4	CC(C)=CCCC(C)(O)C1Cc2c(c(CC=C(C)C)c(O)c3c(=O)c4cc(O)ccc4oc23)O1 (stereo unspecified)
5.1	CC(C)=CCC/C(C)=C/COc1cc2oc3ccc(O)cc3c(=O)c2c(O)c1CC=C(C)C
